How the values were obtained:
[1] = Dissolution test (Ph. Eur. 2.9.3, paddle apparatus, 0.1 N HCl, 45 min); assay type: physicochemical; conditions: HCl 0.1N, 45 minutes where stated
Description: • Analytical procedure: Ph. Eur. <2.9.3>; UVNis
• Paddle apparatus. • Stirring speed: 100 rpm. • Dissolution medium: 0.1 N Hydrochloric acid.
0.1 N Hydrochloric acid: using a pipette, transfer 8.5 ml of hydrochloric acid to a 1,000 ml calibrated flask and dilute to volume with water HPLC grade. • Volume of dissolution medium: 900 ml. • Dissolution time: 45 min. • Temperature of dissolution medium: 37±0.5° C.

[2] = Related substances (total impurities) by HPLC in stability experiments; assay type: physicochemical; conditions: within the coating
Description: • Analytical procedure: Ph. Eur. <2.2.29>; HPLC
• Column: Luna C18 (2) 5 μm, 150×4.6 mm. • Mobile phase: Acetonitrile/0.5% phosphoric acid as following:
• 0.5% phosphoric acid: using a pipette, transfer 5 ml of o-phosphoric acid (85%) to a 1,000 ml calibrated flask and dilute to volume with water HPLC grade. • Flow: 1.0 ml/min. • Wavelength detection: 210 nm. • Injection volume: 20 μl. • Column temperature: 30° C. • Retention time of Albaconazole: approx. 20.0 min. • Chromatogram time: 29 min.
Test solution: Grind the content (pellets) of, at least, 5 capsules, from the obtained powder weight, accurately, about 150 mg and transfer to a 25 ml calibrated flask. Add about 20 ml of acetonitrile HPLC grade and apply the ultrasound during approximately 10 min. Allow to cool and dilute to volume with acetonitrile HPLC grade. Filter through a 0.45 μm Millex HV-PVDF filter or similar, discard the first drops of filtrate (perform in triplicate).
Individual related substances that are lower than the quantification limit (Quantification limit: QL=0.015%), and any peak corresponding to placebo have not been quantified. The compositions of the invention may be used in the treatment of fungal infections in a patient by orally administering said compositions to said patient.

| Compound | Dissolution behaviour (observation in words) [1] | Impurities during stability experiments (in words) [2] |
| --- | --- | --- |
| C[C@@H](n1cnc2cc(Cl)ccc2c1=O)[C@](O)(Cn1cncn1)c1ccc(F)cc1F [Albaconazole form Ill, Albaconazole] | excellent dissolution results | low impurities during stability experiments |
| C[C@@H](n1cnc2cc(Cl)ccc2c1=O)[C@](O)(Cn1cncn1)c1ccc(F)cc1F [crystalline Albaconazole, Albaconazole] | dissolves faster at early times than amorphous Albaconazole |  |
